Each block holds one compound with its values, some of them ahead of it.
Key:
Assay type in all cases: biochemical
[1] = biological target: T1, 1-aminocyclopropane-1-carboxylic acid oxidase (ACCO1) (Malus domestica, UniProt Q00985); assay: steady-state kinetics (data not shown)
[2] = biological target: T1, 1-aminocyclopropane-1-carboxylic acid oxidase (ACCO1); assay: steady-state kinetics, ethylene assay by GC; set-up: purified ACCO fusion protein
[3] = biological target: T1, 1-aminocyclopropane-1-carboxylic acid oxidase (ACCO1); assay: steady-state kinetics, ethylene assay by GC, double reciprocal plot; UV/Vis spectrum; set-up: His-Tag fusion protein expressed in E. coli
[4] = biological target: T1, 1-aminocyclopropane-1-carboxylic acid oxidase (ACCO1); assay: steady-state kinetics, competitive activation (Ka), double reciprocal plot; set-up: purified recombinant ACCO

T1 sequence (Q00985 whole entry, the tested form may be a part): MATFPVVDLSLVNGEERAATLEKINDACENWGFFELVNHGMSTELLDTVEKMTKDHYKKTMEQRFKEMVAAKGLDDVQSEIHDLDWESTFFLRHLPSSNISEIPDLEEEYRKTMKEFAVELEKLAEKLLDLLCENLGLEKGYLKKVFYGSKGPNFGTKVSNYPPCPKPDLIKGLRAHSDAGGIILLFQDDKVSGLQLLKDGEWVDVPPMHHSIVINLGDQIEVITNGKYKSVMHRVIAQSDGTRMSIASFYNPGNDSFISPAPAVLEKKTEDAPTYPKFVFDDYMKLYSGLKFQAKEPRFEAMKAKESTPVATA

- Ki [1]: 930 µM
SMILES: O=C(O)CC(=O)C(=O)O [Oxaloacetic acid]

- Ki [1]: 70 µM
SMILES: O=C(O)CC(=O)O [Malonic acid]

SMILES: O=C(O)[C@@H](O)[C@H]1OC(=O)[C@H](O)[C@H]1O [D-Saccharic acid 1,4-lactone]
- Ki [2]: 300 µM

- Ki [3]: 200 µM
SMILES: Cc1ncc(COP(=O)(O)O)c(C=O)c1O [Pyridoxal-5′-phosphate]

- steady-state kinetics, competitive activation (Ka), double reciprocal plot [4]: 2.2 mM
SMILES: O=c1[nH]c(=O)c2nccnc2[nH]1 [2,4-pteridinediol]

— publication PMC3828642 (AoB Plants, 2013)
